Measured values from ChEMBL document CHEMBL1909046, “DrugMatrix in vitro pharmacology data”.

Assays:
[1] = biological target: Epidermal growth factor receptor (Homo sapiens, UniProt P00533); test: DRUGMATRIX: Protein Tyrosine Kinase, EGF Receptor enzyme inhibition (substrate: Poly(Glu:Tyr)); format: cell-based, Insect cells; details: Not Active = under 50% inhibition at 10 µM
[2] = biological target: Mitogen-activated protein kinase 14 (Homo sapiens, UniProt Q16539); parameters: species or system Escherichia coli;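 also: inhibition of p38alpha enzyme activity in a biochemical kinase assay, with myelin basic protein serving as substrate; in other assays of this panel Not Active means under 50% inhibition at 10 µM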
Cytochrome P450 1A2 = biological target: T1, Cytochrome P450 1A2 (Homo sapiens, UniProt P05177); details: bti-tn-5b1-4; also: in other assays of this panel Not Active means under 50% inhibition at 10 µM
T1 sequence (P05177 whole entry): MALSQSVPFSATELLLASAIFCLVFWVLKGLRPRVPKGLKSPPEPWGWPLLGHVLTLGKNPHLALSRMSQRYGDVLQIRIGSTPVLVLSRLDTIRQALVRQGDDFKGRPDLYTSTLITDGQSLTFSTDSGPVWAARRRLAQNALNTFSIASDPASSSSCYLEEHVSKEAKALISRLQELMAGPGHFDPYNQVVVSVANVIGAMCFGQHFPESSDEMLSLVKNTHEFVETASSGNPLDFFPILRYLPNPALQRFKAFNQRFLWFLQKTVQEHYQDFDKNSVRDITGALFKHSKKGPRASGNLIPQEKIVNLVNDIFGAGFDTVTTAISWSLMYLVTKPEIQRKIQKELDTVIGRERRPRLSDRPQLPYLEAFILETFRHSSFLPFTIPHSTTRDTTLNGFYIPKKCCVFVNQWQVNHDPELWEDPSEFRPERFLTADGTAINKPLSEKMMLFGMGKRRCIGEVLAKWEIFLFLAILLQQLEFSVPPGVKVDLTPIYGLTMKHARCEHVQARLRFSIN

[3] = DRUGMATRIX: Nicotinic Acetylcholine radioligand binding (ligand: [125I] Epibatidine); format: cell membranes, Membrane; details: imr-32; Not Active = under 50% inhibition at 10 µM
[4] = biological target: Mitogen-activated protein kinase 1 (Homo sapiens, UniProt P28482); test: DRUGMATRIX: Protein Serine/Threonine Kinase, ERK2 enzyme inhibition (substrate: Myelin Basic Protein); parameters: species or system Escherichia coli; details: Not Active = under 50% inhibition at 10 µM
[5] = biological target: T2, 5-hydroxytryptamine receptor 1A (Rattus norvegicus, UniProt P19327); format: cell membranes, CHO-K1, Membrane; details: for Ki: read-out: Ki; as to all read-outs here: in other assays of this panel Not Active means under 50% inhibition at 10 µM
T2 sequence (P19327 whole entry): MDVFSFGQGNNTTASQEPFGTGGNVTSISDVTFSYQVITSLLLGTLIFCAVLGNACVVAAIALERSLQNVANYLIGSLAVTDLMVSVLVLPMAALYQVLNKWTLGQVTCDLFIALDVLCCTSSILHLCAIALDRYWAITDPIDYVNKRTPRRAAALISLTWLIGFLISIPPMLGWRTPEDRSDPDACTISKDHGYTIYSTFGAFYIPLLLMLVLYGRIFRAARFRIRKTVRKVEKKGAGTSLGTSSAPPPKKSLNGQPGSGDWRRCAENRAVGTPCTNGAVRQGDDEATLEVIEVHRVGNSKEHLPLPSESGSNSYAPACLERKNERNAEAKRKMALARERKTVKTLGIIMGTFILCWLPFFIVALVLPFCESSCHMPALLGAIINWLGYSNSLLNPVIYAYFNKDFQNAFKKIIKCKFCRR

[6] = DRUGMATRIX: Imidazoline I2, Central radioligand binding (ligand: [3H] Idazoxan); format: cell membranes, Rattus norvegicus, Wistar, Cerebral cortex, Membrane; details: Not Active = under 50% inhibition at 10 µM

Sequence of Epidermal growth factor receptor (P00533 whole entry): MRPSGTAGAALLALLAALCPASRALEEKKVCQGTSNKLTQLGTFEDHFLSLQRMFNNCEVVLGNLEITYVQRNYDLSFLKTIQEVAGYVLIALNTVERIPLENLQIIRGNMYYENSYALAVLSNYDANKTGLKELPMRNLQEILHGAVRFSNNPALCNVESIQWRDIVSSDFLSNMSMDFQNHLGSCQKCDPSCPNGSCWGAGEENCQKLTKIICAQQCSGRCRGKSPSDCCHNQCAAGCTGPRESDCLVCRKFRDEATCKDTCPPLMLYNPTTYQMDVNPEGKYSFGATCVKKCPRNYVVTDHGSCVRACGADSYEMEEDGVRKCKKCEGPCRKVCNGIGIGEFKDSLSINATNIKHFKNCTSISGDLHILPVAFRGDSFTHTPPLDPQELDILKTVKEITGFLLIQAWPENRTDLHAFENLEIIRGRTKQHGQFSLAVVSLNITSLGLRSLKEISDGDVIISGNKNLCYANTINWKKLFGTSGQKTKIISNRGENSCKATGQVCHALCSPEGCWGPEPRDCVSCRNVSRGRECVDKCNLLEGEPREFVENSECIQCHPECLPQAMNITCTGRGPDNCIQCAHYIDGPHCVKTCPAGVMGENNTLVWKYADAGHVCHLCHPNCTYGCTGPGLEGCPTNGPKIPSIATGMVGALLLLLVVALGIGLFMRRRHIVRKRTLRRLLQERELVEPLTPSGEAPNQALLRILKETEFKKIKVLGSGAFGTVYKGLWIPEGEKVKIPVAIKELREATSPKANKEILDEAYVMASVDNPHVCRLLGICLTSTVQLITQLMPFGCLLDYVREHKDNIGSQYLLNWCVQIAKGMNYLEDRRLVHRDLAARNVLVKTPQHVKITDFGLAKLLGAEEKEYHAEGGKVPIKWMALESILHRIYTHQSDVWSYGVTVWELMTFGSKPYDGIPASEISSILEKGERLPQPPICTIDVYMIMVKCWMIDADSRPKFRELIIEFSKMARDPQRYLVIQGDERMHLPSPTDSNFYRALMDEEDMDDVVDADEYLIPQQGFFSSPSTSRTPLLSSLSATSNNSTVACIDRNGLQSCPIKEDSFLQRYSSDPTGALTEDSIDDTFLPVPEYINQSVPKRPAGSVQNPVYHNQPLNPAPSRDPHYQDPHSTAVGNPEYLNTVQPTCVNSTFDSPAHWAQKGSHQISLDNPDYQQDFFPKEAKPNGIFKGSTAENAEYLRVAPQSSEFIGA
Sequence of Mitogen-activated protein kinase 1 (P28482 whole entry): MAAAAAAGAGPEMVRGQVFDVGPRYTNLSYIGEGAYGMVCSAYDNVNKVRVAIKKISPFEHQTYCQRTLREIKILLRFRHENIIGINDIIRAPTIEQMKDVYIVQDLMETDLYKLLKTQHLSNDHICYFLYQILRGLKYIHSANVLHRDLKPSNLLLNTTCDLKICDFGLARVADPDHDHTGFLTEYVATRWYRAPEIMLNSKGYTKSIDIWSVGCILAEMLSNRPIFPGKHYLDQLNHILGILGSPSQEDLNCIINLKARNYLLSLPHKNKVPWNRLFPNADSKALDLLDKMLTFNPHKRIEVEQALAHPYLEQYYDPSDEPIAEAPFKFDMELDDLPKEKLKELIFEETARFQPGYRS
Sequence of Mitogen-activated protein kinase 14 (Q16539 whole entry): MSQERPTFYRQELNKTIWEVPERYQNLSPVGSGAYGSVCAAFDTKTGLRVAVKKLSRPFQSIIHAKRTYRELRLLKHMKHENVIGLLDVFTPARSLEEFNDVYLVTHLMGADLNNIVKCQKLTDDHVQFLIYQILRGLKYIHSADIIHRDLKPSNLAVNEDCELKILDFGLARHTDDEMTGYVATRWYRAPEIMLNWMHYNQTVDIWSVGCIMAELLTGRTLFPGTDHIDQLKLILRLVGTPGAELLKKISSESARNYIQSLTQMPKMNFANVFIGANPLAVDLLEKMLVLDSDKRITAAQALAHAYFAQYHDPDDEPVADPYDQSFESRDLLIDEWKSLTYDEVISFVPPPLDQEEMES

| SMILES | IC50 ([1]; insect cells) | IC50 [2] | IC50 (Cytochrome P450 1A2) | Ki (Cytochrome P450 1A2) | IC50 [3] | Ki [3] | IC50 [4] | IC50 ([5]; read-out: IC50) | Ki [5] | IC50 [6] | Ki [6] | IC50 ([5]; cho-k1) | IC50 ([1]; read-out: IC50) | IC50 ([6]; read-out: IC50) | Ki ([6]; read-out: Ki) | IC50 ([4]; read-out: IC50) |
| --- | --- | --- | --- | --- | --- | --- | --- | --- | --- | --- | --- | --- | --- | --- | --- | --- |
| CC(C)(C)NC(=O)[C@@H]1C[C@@H]2CCCC[C@@H]2CN1C[C@@H](O)[C@H](Cc1ccccc1)NC(=O)[C@H](CC(N)=O)NC(=O)c1ccc2ccccc2n1 | Not Active | Not Active | Not Active | Not Active | Not Active | Not Active | Not Active | 4.27 µM | 2.44 µM | Not Active | Not Active | – | – | – | – | – |
| CC(=O)[C@@]1(O)CC[C@H]2[C@@H]3C[C@H](C)C4=CC(=O)CC[C@]4(C)[C@H]3CC[C@@]21C | Not Active | Not Active | Not Active | Not Active | Not Active | Not Active | Not Active | – | – | Not Active | Not Active | Not Active | – | – | – | – |
| N[C@@H](Cc1ccc(N(CCCl)CCCl)cc1)C(=O)O | Not Active | Not Active | Not Active | Not Active | Not Active | Not Active | Not Active | – | – | Not Active | Not Active | Not Active | – | – | – | – |
| CCCCc1oc2ccccc2c1C(=O)c1cc(I)c(OCCN(CC)CC)c(I)c1 [AMIODARONE] | Not Active | Not Active | – | – | – | – | Not Active | – | – | – | – | Not Active | – | – | – | – |
| OCCN(CCO)c1nc(N2CCCCC2)c2nc(N(CCO)CCO)nc(N3CCCCC3)c2n1 [DIPYRIDAMOLE] | Not Active | Not Active | – | – | Not Active | Not Active | Not Active | – | – | Not Active | Not Active | Not Active | – | – | – | – |
| Cc1oncc1C(=O)Nc1ccc(C(F)(F)F)cc1 [LEFLUNOMIDE] | Not Active | Not Active | – | – | Not Active | Not Active | Not Active | – | – | Not Active | Not Active | Not Active | – | – | – | – |
| c1ccc([C@H]2CN3CCSC3=N2)cc1 [LEVAMISOLE] | Not Active | Not Active | Not Active | Not Active | Not Active | Not Active | Not Active | – | – | Not Active | Not Active | Not Active | – | – | – | – |
| N[C@@H](Cc1ccc(O)c(O)c1)C(=O)O [LEVODOPA] | – | Not Active | Not Active | Not Active | Not Active | Not Active | Not Active | – | – | Not Active | Not Active | Not Active | 2.88 µM | – | – | – |
| N[C@@H](Cc1cc(I)c(Oc2ccc(O)c(I)c2)c(I)c1)C(=O)O [LIOTHYRONINE] | Not Active | Not Active | – | – | – | – | Not Active | – | – | – | – | Not Active | – | – | – | – |
| O=NN(CCCl)C(=O)NC1CCCCC1 [LOMUSTINE] | Not Active | Not Active | Not Active | Not Active | Not Active | Not Active | Not Active | – | – | Not Active | Not Active | Not Active | – | – | – | – |
| CCOC(=O)N1CCC(=C2c3ccc(Cl)cc3CCc3cccnc32)CC1 [LORATADINE] | Not Active | Not Active | – | – | Not Active | Not Active | Not Active | – | – | Not Active | Not Active | Not Active | – | – | – | – |
| Cn1ccnc1S [METHIMAZOLE] | Not Active | Not Active | – | – | Not Active | Not Active | Not Active | – | – | Not Active | Not Active | Not Active | – | – | – | – |
| CC[C@@H](CO)NC(=O)[C@@H]1C=C2c3cccc4[nH]cc(c34)C[C@H]2N(C)C1 [METHYLERGONOVINE] | Not Active | Not Active | Not Active | Not Active | Not Active | Not Active | Not Active | 0.00407 µM | 0.00233 µM | – | – | – | – | 2.93 µM | 1.96 µM | – |
| COc1nc(C)nc(Cl)c1NC1=NCCN1 [MOXONIDINE] | Not Active | Not Active | Not Active | Not Active | Not Active | Not Active | Not Active | 0.702 µM | 0.401 µM | – | – | – | – | 1.48 µM | 0.984 µM | – |
| COc1c(C)c2c(c(O)c1C/C=C(\C)CCC(=O)O)C(=O)OC2 [MYCOPHENOLIC ACID] | Not Active | Not Active | Not Active | Not Active | Not Active | Not Active | Not Active | – | – | Not Active | Not Active | Not Active | – | – | – | – |
| O=c1ncn2nc(Sc3ccc(F)cc3F)ccc2c1-c1c(Cl)cccc1Cl [NEFLAMAPIMOD] | Not Active | – | Not Active | Not Active | Not Active | Not Active | Not Active | – | – | Not Active | Not Active | Not Active | – | – | – | – |
| CN1CCN(CCCN2c3ccccc3Sc3ccc(Cl)cc32)CC1 [PROCHLORPERAZINE] | Not Active | Not Active | – | – | – | – | Not Active | 0.95 µM | 0.543 µM | – | – | – | – | – | – | – |
| CO[C@H]1/C=C/O[C@@]2(C)Oc3c(C)c(O)c4c(O)c(c(/C=N/N5CCN(C)CC5)c(O)c4c3C2=O)NC(=O)/C(C)=C\C=C\[C@H](C)[C@H](O)[C@@H](C)[C@@H](O)[C@@H](C)[C@H](OC(C)=O)[C@@H]1C [RIFAMPIN] | Not Active | Not Active | Not Active | Not Active | Not Active | Not Active | Not Active | – | – | Not Active | Not Active | Not Active | – | – | – | – |
| Nc1nc2ccc(OC(F)(F)F)cc2s1 [RILUZOLE] | Not Active | Not Active | – | – | Not Active | Not Active | Not Active | – | – | Not Active | Not Active | Not Active | – | – | – | – |
| Cc1nc2n(c(=O)c1CCN1CCC(c3noc4cc(F)ccc34)CC1)CCCC2 [RISPERIDONE] | Not Active | Not Active | Not Active | Not Active | – | – | Not Active | – | – | – | – | – | – | – | – | – |
| C=CCC1(C(C)CCC)C(=O)NC(=O)NC1=O (stereo unspecified) [SECOBARBITAL] | Not Active | Not Active | Not Active | Not Active | Not Active | Not Active | Not Active | – | – | Not Active | Not Active | Not Active | – | – | – | – |
| C[C@@H]1CN(c2c(F)c(N)c3c(=O)c(C(=O)O)cn(C4CC4)c3c2F)C[C@H](C)N1 [SPARFLOXACIN] | Not Active | Not Active | Not Active | Not Active | Not Active | Not Active | Not Active | – | – | Not Active | Not Active | Not Active | – | – | – | – |
| CSc1ccc(/C=C2/C(C)=C(CC(=O)O)c3cc(F)ccc32)cc1 [SULINDAC SULFIDE] | – | Not Active | – | – | Not Active | Not Active | – | – | – | Not Active | Not Active | Not Active | 24 µM | – | – | 1.09 µM |
| CC/C(=C(\c1ccccc1)c1ccc(OCCN(C)C)cc1)c1ccccc1 [TAMOXIFEN] | – | Not Active | Not Active | Not Active | – | – | Not Active | 12.2 µM | 6.95 µM | – | – | – | 3.55 µM | – | – | – |
| CC(C)N1CCN(c2ccc(OCC3COC(Cn4cncn4)(c4ccc(Cl)cc4Cl)O3)cc2)CC1 (stereo unspecified) [TERCONAZOLE] | Not Active | Not Active | Not Active | Not Active | – | – | Not Active | – | – | – | – | Not Active | – | 2.23 µM | 1.48 µM | – |
| N[C@@H]1[C@H]2CN(c3nc4c(cc3F)c(=O)c(C(=O)O)cn4-c3ccc(F)cc3F)C[C@@H]12 [TROVAFLOXACIN] | – | Not Active | Not Active | Not Active | Not Active | Not Active | Not Active | – | – | Not Active | Not Active | Not Active | – | – | – | – |
| N#CC(C#N)=Cc1ccc(O)c(O)c1 [TYRPHOSTIN 23] | – | Not Active | Not Active | Not Active | Not Active | Not Active | Not Active | – | – | Not Active | Not Active | Not Active | – | – | – | – |
